Measurements published in patent US20110152326A1, “SUBSTITUTED ARYLOXOETHYL CYCLOPROPANECARBOXAMIDE COMPOUNDS AS VR1 RECEPTOR ANTAGONISTS” (priority 2005, published 2011).

Target: T1, human VR1 receptors (Homo sapiens, UniProt Q8NER1)
T1 construct: host or cells: cells that highly express human VR1 receptors
Assay: Human VR1 antagonist assay, Ca2+ imaging, capsaicin stimulation
Format: cell-based
Settings: human VR1 expressing cells; concentration required to reduce capsaicin-evoked Ca2+ influx by 50%; capsaicin 300 nM; read-out: hVR1 IC50
Source text: VR1 antagonistic activity can be determined by the Ca^2+ imaging assay using human VR1 highly expressing cells. The cells that highly express human VR1 receptors are obtainable from several different conventional methods. The one standard method is cloning from human Dorsal Root Ganglion (DRG) or kidney according to the methods such as described in the journal article; Nature, 389, pp 816-824, 1997. Alternatively VR1 receptors highly expressing human keratinocytes are also known and published in the journal article (Biochemical and Biophysical Research Communications, 291, pp 124-129, 2002). […] Further more, the method to up regulate human VR1 gene, which is usually a silent gene or don't produce detectable level of VR1 receptors, is also available to obtain propriety cells. Such genetic modification method was described in detail; Nat. Biotechnol., 19, pp 440-445, 2001.
The cells that express human VR1 receptors were maintained in culture flask at 37° C. in an environment containing 5% CO2 until use in the assay. The intracellular Ca^2+ imaging assay to determine VR1 antagonistic activities were done by following procedures.
The culture medium was removed from the flask and fura-2/AM fluorescent calcium indicator was added to the flask at a concentration of 5 μM in the medium. The flask was placed in CO2 incubator and incubated for 1 hour. Then the cells expressing the human VR1 receptors were detached from the flask follow by washing with phosphate buffer saline, PBS(−) and re-suspended in assay buffer. The 80 μl of aliquot of cell suspension (3.75×10^5 cells/ml) was added to the assay plate and the cells were spun down by centrifuge (950 rpm, 20° C., 3 minutes).
The capsaicin-induced changes in the intracellular calcium concentration were monitored using FDSS 6000 (Hamamatsu Photonics, Japan), a fluorometric imaging system. The cell suspension in Krebs-Ringer HEPES (KRH) buffer (115 mM NaCl, 5.4 mM KCl, 1 mM MgSO4, 1.8 mM CaCl2, 11 mM D-Glucose, 25 mM HEPES, 0.96 mM Na2HPO4, pH 7.3) were pre-incubated with varying concentrations of the test compounds or KRH buffer (buffer control) for 15 minutes at room temperature under the dark condition. Then capsaicin solution, which gives 300 nM in assay mixture, was automatically added to the assay plate by the FDSS 6000.
The monitoring of the changes in the fluorescence signals (λex=340 nm/380 nm, λem=510-520 nm) was initiated at 1 minute prior to the addition of capsaicin solution or acidic buffer and continued for 5 minute.

T1 sequence (Q8NER1 whole entry): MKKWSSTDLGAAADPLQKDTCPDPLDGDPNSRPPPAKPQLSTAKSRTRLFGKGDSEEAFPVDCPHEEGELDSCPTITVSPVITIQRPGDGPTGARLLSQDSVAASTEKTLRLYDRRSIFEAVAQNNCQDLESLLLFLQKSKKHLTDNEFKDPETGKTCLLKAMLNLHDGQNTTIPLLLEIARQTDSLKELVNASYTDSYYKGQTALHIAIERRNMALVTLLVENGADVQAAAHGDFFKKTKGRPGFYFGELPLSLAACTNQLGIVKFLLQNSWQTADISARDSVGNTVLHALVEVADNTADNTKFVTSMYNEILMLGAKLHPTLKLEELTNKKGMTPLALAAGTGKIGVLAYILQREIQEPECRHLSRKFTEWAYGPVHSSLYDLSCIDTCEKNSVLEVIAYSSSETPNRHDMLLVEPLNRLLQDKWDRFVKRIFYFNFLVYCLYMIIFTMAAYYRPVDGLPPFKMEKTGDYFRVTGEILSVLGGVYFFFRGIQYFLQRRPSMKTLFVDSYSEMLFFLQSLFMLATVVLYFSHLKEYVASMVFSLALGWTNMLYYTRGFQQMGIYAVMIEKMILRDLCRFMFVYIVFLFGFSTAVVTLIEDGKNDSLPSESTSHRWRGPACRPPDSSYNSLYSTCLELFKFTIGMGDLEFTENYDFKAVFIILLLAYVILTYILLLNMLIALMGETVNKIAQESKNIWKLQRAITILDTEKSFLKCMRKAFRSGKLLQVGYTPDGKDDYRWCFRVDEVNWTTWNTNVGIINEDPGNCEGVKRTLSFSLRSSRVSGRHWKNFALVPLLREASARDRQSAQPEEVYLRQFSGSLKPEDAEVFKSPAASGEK

Row | SMILES | IC50
1 | Cc1cccnc1C(=O)CNC(=O)C1C(c2ccc(C(C)(C)C)cc2)C1(F)F (stereo not shown) [Example 9, 3-(4-Tert-Butylphenyl)-2,2-Difluoro-N-[2-(3-Methylpyridin-2-yl)-2-Oxoethyl]Cyclopropanecarboxamide] | 306 nM
2 | Cn1ccnc1C(=O)CNC(=O)C1CC1(C)c1ccc(C(C)(C)C(F)(F)F)cc1 (stereo not shown) [Example 11, 2-Methyl-N-[2-(1-Methyl-1H-Imidazol-2-yl)-2-Oxoethyl]-2-[4-(2,2,2-Trifluoro-1,1-Dimethylethyl)Phenyl]Cyclopropanecarboxamide] | 451 nM
3 | Cc1ccc(O)cc1C(=O)CNC(=O)C1CC1c1ccc(C(C)(C)C)cc1 (stereo not shown) [Example 3, 2-(4-Tert-Butylphenyl)-N-[2-(5-Hydroxy-2-Methylphenyl)-2-Oxoethyl]Cyclopropanecarboxamide] | 704 nM
4 | Cn1ccnc1C(=O)CNC(=O)C1CC1c1ccc(C(C)(C)C)c(F)c1 (stereo not shown) [Example 10, 2-(4-Tert-Butyl-3-Fluorophenyl)-N-[2-(1-Methyl-1H-Imidazol-2-yl)-2-Oxoethyl]Cyclopropanecarboxamide] | 238 nM
5 | COc1ccc(C)c(C(=O)CNC(=O)C2CC2c2ccc(C(C)(C)C)cc2)c1 (stereo not shown) [Example 2, 2-(4-Tert-Butylphenyl)-N-[2-(5-Methoxy-2-Methylphenyl)-2-Oxoethyl]Cyclopropanecarboxamide] | 1010 nM
6 | CCn1ccnc1C(=O)CNC(=O)C1CC1(C)c1ccc(C(C)(C)C(F)(F)F)cc1 (stereo not shown) [Example 12, N-[2-(1-Ethyl-1H-Imidazol-2-yl)-2-Oxoethyl]-2-Methyl-2-[4-(2,2,2-Trifluoro-1,1-Dimethylethyl)Phenyl]Cyclopropanecarboxamide] | 340 nM

Stronger by IC50, values ahead:

Row | IC50 | SMILES
7 | 134 nM | Cc1cccnc1C(=O)CNC(=O)C1CC1(C)c1ccc(C(C)(C)C)cc1 (stereo not shown) [Example 6, 2-(4-Tert-Butylphenyl)-2-Methyl-N-[2-(3-Methylpyridin-2-yl)-2-Oxoethyl]Cyclopropanecarboxamide]
8 | 111 nM | Cc1cccnc1C(=O)CNC(=O)C1CC1c1ccc(C(C)(C)C(F)(F)F)cc1 (stereo not shown) [Example 5, N-[2-(3-Methylpyridin-2-yl)-2-Oxoethyl]-2-[4-(2,2,2-Trifluoro-1,1-Dimethylethyl)Phenyl]Cyclopropanecarboxamide]
9 | 102 nM | CC(C)(C)c1ccc(C2CC2C(=O)NCC(=O)c2ncccc2C(F)(F)F)cc1F (stereo not shown) [Example 8, 2-(4-Tert-Butyl-3-Fluorophenyl)-N-[2-(3-Trifluoromethylpyridin-2-yl)-2-Oxoethyl]Cyclopropanecarboxamide]
10 | 102 nM | Cc1cccnc1C(=O)CNC(=O)C1CC1c1ccc(C(C)(C)C)cc1 (stereo not shown) [Example 1, 2-(4-Tert-Butylphenyl)-N-[2-(3-Methylpyridin-2-yl)-2-Oxoethyl]Cyclopropanecarboxamide]
11 | 99 nM | Cc1cccnc1C(=O)CNC(=O)C1CC1c1ccc(C(C)(C)C)c(F)c1 (stereo not shown) [Example 4, 2-(4-Tert-Butyl-3-Fluorophenyl)-N-[2-(3-Methylpyridin-2-yl)-2-Oxoethyl]Cyclopropanecarboxamide]
12 | 92 nM | Cc1cccnc1C(=O)CNC(=O)C1CC1c1ccc(C(C)(C)C)c(Cl)c1 (stereo not shown) [Example 7, 2-(4-Tert-Butyl-3-Chlorophenyl)-N-[2-(3-Methylpyridin-2-yl)-2-Oxoethyl]Cyclopropanecarboxamide]
13 | 69 nM | CCn1ccnc1C(=O)CNC(=O)C1CC1c1cc(F)c(C(C)(C)C(F)(F)F)c(F)c1 (stereo not shown) [Example 13, 2-[3,5-Difluoro-4-(2,2,2-Trifluoro-1,1-Dimethylethyl)Phenyl]-N-[2-(1-Ethyl-1H-Imidazol-2-yl)-2-Oxoethyl]Cyclopropanecarboxamide]
